Reference: ChEMBL document CHEMBL1130689, “Cathepsin B-sensitive dipeptide prodrugs. 2. Models of anticancer drugs paclitaxel (Taxol), mitomycin C and doxorubicin” (Bioorg Med Chem Lett, 1998)

Key:
Rattus norvegicus = species on record: Rattus norvegicus; assay: The release rate of the free drug from the substrate in rat liver lysosomal preparation by rat liver lysosomal assay; format: ADME
[1] = The release rate of the free drug from the substrate in presence of Cathepsin B by Cathepsin B assay; format: ADME
[2] = The release rate of the free drug from the substrate in human plasma by human plasma stability assay; Not hydrolyzed; format: ADME, cell-free
[3] = The release rate of the free drug from the substrate in human plasma by human plasma stability assay; format: ADME, cell-free

T1/2 (Rattus norvegicus) [min] | T1/2 [1] [min] | T1/2 [2] | T1/2 [3] [h] | SMILES
24 | 10 | – | 149 | COC12C(COC(N)=O)C3=C(C(=O)C(C)=C(N)C3=O)N1CC1C2N1C(=O)OCc1ccc(NC(=O)[C@H](CCCCN)NC(=O)[C@H](Cc2ccccc2)NC(=O)OC(C)(C)C)cc1 (some centres not stated)
19 | 540 | Not hydrolyzed | – | CC(=O)O[C@H]1C(=O)[C@@]2(C)C([C@H](OC(=O)c3ccccc3)[C@]3(O)C[C@H](OC(=O)[C@H](OC(=O)OCc4ccc(NC(=O)[C@H](CCCCN)NC(=O)[C@H](Cc5ccccc5)NC(=O)OCc5ccccc5)cc4)[C@@H](NC(=O)c4ccccc4)c4ccccc4)C(C)=C1C3(C)C)[C@]1(OC(C)=O)COC1C[C@@H]2O (some centres not stated)
66 | 40 | Not hydrolyzed | – | CC(=O)O[C@H]1C(=O)[C@@]2(C)C([C@H](OC(=O)c3ccccc3)[C@]3(O)C[C@H](OC(=O)[C@H](O)[C@@H](NC(=O)c4ccccc4)c4ccccc4)C(C)=C1C3(C)C)[C@]1(OC(C)=O)COC1C[C@@H]2OC(=O)OCc1ccc(NC(=O)[C@H](CCCCN)NC(=O)[C@H](Cc2ccccc2)NC(=O)OC(C)(C)C)cc1 (some centres not stated)

SMILES | T1/2 (Rattus norvegicus) [min] | T1/2 [1] [min] | T1/2 [2] | T1/2 [3] [h]
COc1cccc2c1C(=O)c1c(O)c3c(c(O)c1C2=O)C[C@@](O)(C(=O)CO)C[C@@H]3OC1CC(NC(=O)OCc2ccc(NC(=O)[C@H](CCCCN)NC(=O)[C@H](Cc3ccccc3)NC(=O)OCc3ccccc3)cc2)C(O)C(C)O1 (some centres not stated) | 29 | 8 | Not hydrolyzed | –
